This note sets out measurements from PubChem BioAssay (NCI).

Where “and” joins values, the source holds several entries; their conditions need not be identical. Equal values may be shown once.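 Values below derive from 48-hour exposures of cells grown in 96-well plates, with endpoints linearly interpolated between the two concentrations bracketing the appropriate inhibition level. At the GI50, growth is halved. Definition used: TGI = concentration required for complete inhibition of growth.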 A value given as a limit tells only on which side of the number the result lay.

Among the test systems are DU-145 prostate; BT-549 breast; HCC-2998 colon; U251 CNS; SN12C renal; LOX IMVI melanoma; MDA-MB-231 breast; NCI-H522 lung; HS 578T breast; SK-MEL-5 melanoma.
Experiment in all cases: NCI-60 cell line screen, 48 h

In the case of `CCC1(O)C(=O)OCc2c1cc1n(c2=O)Cc2cc3ccc(C=O)cc3nc2-1` (stereo not drawn), the TGI with DU-145 prostate is 3.21 µM and 24.3 µM; in the test with BT-549 breast, 29.8 µM and 59.6 µM; in the test with HCC-2998 colon it was 10.4 µM and 26.1 µM; in the test with U251 CNS it was 50 µM and 8.82 µM; in the test with SN12C renal, 50 µM and 7.53 µM; in the test with LOX IMVI melanoma, 7.8 µM and 5.58 µM. The TGI was 50 µM and 68.2 µM in the test with MDA-MB-231 breast; 15.4 µM and 13.8 µM in the test on NCI-H522 lung; 50 µM and > 100 µM with HS 578T breast; 6.95 µM and 6.23 µM in the test on SK-MEL-5 melanoma. Also, the GI50 is 4.56 µM with BT-549 breast; 2.52 µM with HCC-2998 colon; 1.02 µM in the test with U251 CNS; 1.39 µM with SN12C renal; 0.403 µM with LOX IMVI melanoma; 19.4 µM with MDA-MB-231 breast. Moreover, the GI50 with NCI-H522 lung was 6.8 µM and 2.9 µM; with HS 578T breast, 27 µM; in the test with SK-MEL-5 melanoma it was 1.57 µM.

`CC/C=C\C[C@@H]1C/C=C2/C(=O)C=C[C@H]2C/C=C\CCCC(=O)O1`: the GI50 in the test on DU-145 prostate is 0.362 µM; in the test with BT-549 breast, 0.89 µM; with HCC-2998 colon it was 0.259 µM; in the test with U251 CNS, 0.365 µM; in the test with SN12C renal it was 0.545 µM; in the test with LOX IMVI melanoma it was 0.145 µM. Also, the GI50 in the test with MDA-MB-231 breast was 1.56 µM; in the test on NCI-H522 lung, 0.231 µM; with HS 578T breast it was 2.84 µM; in the test with SK-MEL-5 melanoma it was 0.348 µM. The TGI in the test with DU-145 prostate is 1.28 µM; in the test on BT-549 breast it was 2.23 µM; in the test with HCC-2998 colon, 0.533 µM; in the test on U251 CNS, 1.51 µM; in the test with SN12C renal it was 4.01 µM; with LOX IMVI melanoma it was 0.323 µM. The TGI is 6.59 µM in the test on MDA-MB-231 breast, 0.737 µM in the test on NCI-H522 lung, 9.11 µM in the test with HS 578T breast and 1.43 µM with SK-MEL-5 melanoma.

On to `Cc1cc(C)c(C(=O)CC(=O)c2cccnc2)c(C)c1`, for which the GI50 was 12.2 µM in the test on DU-145 prostate; 2.25 µM with BT-549 breast; 12.8 µM with HCC-2998 colon; 3.67 µM in the test on U251 CNS; 9.35 µM in the test on SN12C renal; 4.84 µM in the test with LOX IMVI melanoma. Also, the GI50 was 11.2 µM with MDA-MB-231 breast, 13.4 µM in the test with NCI-H522 lung, 9.4 µM in the test on HS 578T breast and 7.56 µM in the test with SK-MEL-5 melanoma. The TGI in the test on DU-145 prostate was greater than 100 µM; with BT-549 breast, 33.9 µM; with HCC-2998 colon, greater than 100 µM; in the test with U251 CNS it was greater than 100 µM; in the test on SN12C renal, greater than 100 µM; in the test on LOX IMVI melanoma, greater than 100 µM. The TGI in the test with MDA-MB-231 breast, in the test with NCI-H522 lung, in the test on HS 578T breast and in the test on SK-MEL-5 melanoma was greater than 100 µM each time.

As for `COc1ccc2c(c1)C(=O)c1c-2n(CCCn2ccnc2)c(=O)c2ccccc12`, the GI50 was 0.247 µM in the test on DU-145 prostate; 0.478 µM with BT-549 breast; 0.72 µM in the test with HCC-2998 colon; 0.126 µM with U251 CNS; 0.692 µM with SN12C renal; 0.179 µM in the test on LOX IMVI melanoma. Further, the GI50 in the test with MDA-MB-231 breast was 3.79 µM; in the test with NCI-H522 lung, 0.174 µM; with HS 578T breast it was 1.49 µM; in the test on SK-MEL-5 melanoma, 0.154 µM. The TGI in the test on DU-145 prostate was 4.66 µM; in the test with BT-549 breast it was 3.87 µM; with HCC-2998 colon, 2.91 µM; in the test on U251 CNS, 2.6 µM; with SN12C renal, greater than 100 µM; with LOX IMVI melanoma it was 0.835 µM. Also, the TGI is greater than 79.1 µM in the test with MDA-MB-231 breast, 5.5 µM in the test with NCI-H522 lung, 17.8 µM with HS 578T breast and 0.344 µM in the test on SK-MEL-5 melanoma.

Turning to `COc1ccc(C(=O)COc2cccc(/C=C3\COc4ccc5ccccc5c4C3=O)c2)cc1`, the GI50 in the test with DU-145 prostate is 4.25 µM; in the test with BT-549 breast, 8.44 µM; in the test with HCC-2998 colon, 23.5 µM; with U251 CNS it was 5.61 µM; in the test with SN12C renal it was 4.46 µM; in the test on LOX IMVI melanoma it was 5.41 µM. Moreover, the GI50 in the test with MDA-MB-231 breast is 6.97 µM; in the test with NCI-H522 lung it was 8.13 µM; in the test on HS 578T breast it was 4.93 µM; in the test with SK-MEL-5 melanoma, 5.58 µM. Moreover, the TGI with DU-145 prostate, in the test with BT-549 breast, with HCC-2998 colon, with U251 CNS, with SN12C renal and with LOX IMVI melanoma was greater than 100 µM in each case. Besides, the TGI with MDA-MB-231 breast, in the test with NCI-H522 lung, with HS 578T breast and with SK-MEL-5 melanoma was greater than 100 µM throughout.

On to `CC(C)c1ccc(C(=O)Nc2sc3c(c2C(N)=O)CCC(=O)C3)cc1`, for which the GI50 is 3.16 µM in the test with DU-145 prostate; 0.352 µM with BT-549 breast; 1.85 µM with HCC-2998 colon; 0.399 µM in the test with U251 CNS; 0.515 µM in the test with SN12C renal; 0.373 µM in the test on LOX IMVI melanoma. Besides, the GI50 in the test with MDA-MB-231 breast is 0.788 µM; in the test on NCI-H522 lung, 0.316 µM; in the test on HS 578T breast it was 0.534 µM; in the test on SK-MEL-5 melanoma, 1.14 µM. The TGI in the test with DU-145 prostate was 14.3 µM; in the test with BT-549 breast, 1.94 µM; in the test with HCC-2998 colon, 4.23 µM; with U251 CNS it was 1.9 µM; in the test on SN12C renal it was 2.35 µM; with LOX IMVI melanoma, 1.71 µM. For the same compound, the TGI came to 2.43 µM in the test with MDA-MB-231 breast, 1.56 µM with NCI-H522 lung, 5.27 µM in the test with HS 578T breast and 2.56 µM in the test with SK-MEL-5 melanoma.

Take `Fc1cc(F)c(COc2cc(Cn3cnc4c(Cl)nc(Cl)nc43)ccc2C23CC4CC(CC(C4)C2)C3)cc1F`: the GI50 in the test with DU-145 prostate was 17.1 µM; in the test on BT-549 breast it was 11 µM; with HCC-2998 colon, 18.7 µM; with U251 CNS, 16.8 µM; in the test with SN12C renal, 11 µM; with LOX IMVI melanoma it was 1.76 µM. In addition, the GI50 in the test with MDA-MB-231 breast was 17.5 µM; in the test with NCI-H522 lung, 2.29 µM; in the test on HS 578T breast, 22.9 µM; in the test with SK-MEL-5 melanoma it was 1.68 µM. Besides, the TGI in the test on DU-145 prostate is 30.8 µM; in the test with BT-549 breast it was 24.5 µM; in the test on HCC-2998 colon, 33.5 µM; in the test with U251 CNS it was 30.4 µM; in the test on SN12C renal, 24.9 µM; in the test on LOX IMVI melanoma, 3.91 µM. Besides, the TGI in the test on MDA-MB-231 breast amounted to 32.7 µM; with NCI-H522 lung it was 5.56 µM; with HS 578T breast, 60.9 µM; with SK-MEL-5 melanoma it was 3.53 µM.

For `CCN(CC)c1sc(N(CC)CC)c2c1SSSSS2`, the GI50 was 1.8 µM with DU-145 prostate; 2.06 µM in the test with BT-549 breast; 0.935 µM in the test on HCC-2998 colon; 2.76 µM in the test on U251 CNS; 0.315 µM in the test with SN12C renal; 1.01 µM in the test on LOX IMVI melanoma. Further, the GI50 in the test on MDA-MB-231 breast is 0.894 µM; in the test on NCI-H522 lung it was 0.416 µM; with HS 578T breast it was 2.75 µM; in the test on SK-MEL-5 melanoma, 0.851 µM. Besides, the TGI with DU-145 prostate worked out at 3.37 µM; with BT-549 breast, 4.8 µM; in the test with HCC-2998 colon it was 2.4 µM; with U251 CNS it was 13.2 µM; in the test with SN12C renal, 0.866 µM; in the test on LOX IMVI melanoma, 3.31 µM. Further, the TGI was found to be 2.41 µM in the test with MDA-MB-231 breast, 23.2 µM in the test on HS 578T breast and 1.95 µM in the test on SK-MEL-5 melanoma.

Regarding `CCN(CC)c1ccc(C(=N)c2ccc(N(CC)CC)cc2)cc1`, the GI50 in the test with DU-145 prostate is 0.467 µM; in the test with BT-549 breast it was 1.16 µM; in the test on HCC-2998 colon, 1.1 µM; in the test with U251 CNS, 0.542 µM; with SN12C renal it was 1.34 µM; in the test with LOX IMVI melanoma, 0.598 µM. The GI50 in the test with MDA-MB-231 breast is 1.15 µM; in the test with NCI-H522 lung it was 0.193 µM; in the test with HS 578T breast, 0.59 µM; with SK-MEL-5 melanoma it was 0.342 µM. Further, the TGI is 2.65 µM in the test on DU-145 prostate; 5.78 µM in the test with BT-549 breast; 3.17 µM with HCC-2998 colon; 2.16 µM in the test with U251 CNS; 5.82 µM with SN12C renal; 2.02 µM in the test on LOX IMVI melanoma. Also, the TGI in the test with MDA-MB-231 breast came out at 3.23 µM; in the test with NCI-H522 lung, 0.765 µM; in the test on HS 578T breast, 2.39 µM; in the test on SK-MEL-5 melanoma, 1.24 µM.

`COc1cc2oc(-c3ccc(O)cc3)cc(=O)c2c(OC)c1OC`: the TGI in the test on DU-145 prostate, in the test with BT-549 breast, in the test on HCC-2998 colon, with U251 CNS, with SN12C renal and in the test with LOX IMVI melanoma was greater than 100 µM each time. The TGI in the test with MDA-MB-231 breast, in the test with NCI-H522 lung, in the test with HS 578T breast and in the test with SK-MEL-5 melanoma was greater than 100 µM in each case.

For the compound `NCCCC[C@@H]1NC(=O)[C@H]2CCCN2C(=O)[C@H](Cc2ccccc2)NC(=O)[C@H](Cc2ccccc2)CNC1=O`, the GI50 in the test on DU-145 prostate, in the test with BT-549 breast, in the test with HCC-2998 colon, in the test with U251 CNS, in the test on SN12C renal and in the test on LOX IMVI melanoma was greater than 100 µM each time. The GI50 in the test with MDA-MB-231 breast, in the test on NCI-H522 lung, in the test on HS 578T breast and with SK-MEL-5 melanoma was greater than 100 µM throughout. In addition, the TGI with DU-145 prostate, with BT-549 breast, in the test with HCC-2998 colon, in the test with U251 CNS, with SN12C renal and in the test with LOX IMVI melanoma was greater than 100 µM throughout. Also, the TGI in the test on MDA-MB-231 breast, in the test with NCI-H522 lung, in the test with HS 578T breast and in the test with SK-MEL-5 melanoma was greater than 100 µM throughout.
